Test results taken from patent publication US20080293696A1, “2-Aminoarylcarboxamides Useful as Cancer Chemotherapeutic Agents” (Bayer Pharmaceuticals Corporation, priority 2004, published 2008).

Test system: PAKT/PKB (p-(S473) AKT) in H209 small cell lung carcinoma cells stimulated with Stem Cell Factor
Assay: PAKT/PKB Cytoblot Assay with H209 cells (SCF-stimulated p-(S473) AKT)
Assay type: cell-based
Conditions: Homo sapiens, NCI-H209, compound 1 hour, SCF 25 ng/mL 5 minutes
In short: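 H209 SCLC cells kept overnight in RPMI with 0.1% BSA were pretreated 1 h at 37 °C with compound (0.01–10 μM final), then stimulated with SCF 25 ng/mL for 5 min. After formaldehyde/methanol fixation, p-(S473) AKT was detected in-cell with HRP secondary and ECL chemiluminescence, and IC50 was derived.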

[1] = group: between 500 nM and 1 μM (units in value)

O=C(NCCO)c1cc(CNc2ccccc2C(=O)Nc2ccc3c(c2)OC(F)(F)O3)ccn1 [Example 91, 4-{[(2-{[(2,2-difluoro-1,3-benzodioxol-5-yl)amino]carbonyl}phenyl)amino]methyl}-N-(2-hydroxyethyl)pyridine-2-carboxamide]
IC50 (group: less than 500 nM): < 500 nM

O=C(NCCCN1CCCC1)c1cc(CNc2ccccc2C(=O)Nc2ccc3c(c2)OC(F)(F)O3)ccn1 [Example 92, 4-{[(2-{[(2,2-difluoro-1,3-benzodioxol-5-yl)amino]carbonyl}phenyl)amino]methyl}-N-(3-pyrrolidin-1-ylpropyl)pyridine-2-carboxamide]
IC50 (group: less than 500 nM): < 500 nM

O=C(NCCCO)c1cc(CNc2ccccc2C(=O)Nc2ccc3c(c2)OC(F)(F)O3)ccn1 [Example 93, 4-{[(2-{[(2,2-difluoro-1,3-benzodioxol-5-yl)amino]carbonyl}phenyl)amino]methyl}-N-(3-hydroxypropyl)pyridine-2-carboxamide]
IC50 (group: between 1 and 3 μM): 1000 to 3000 nM

O=C(NCCc1cnc[nH]1)c1cc(CNc2ccccc2C(=O)Nc2ccc3c(c2)OC(F)(F)O3)ccn1 [Example 94, 4-{[(2-{[(2,2-difluoro-1,3-benzodioxol-5-yl)amino]carbonyl}phenyl)amino]methyl}-N-[2-(1H-imidazol-5-yl)ethyl]pyridine-2-carboxamide]
IC50 [1]: 500 to 1000 nM

NC(=O)CCNC(=O)c1cc(CNc2ccccc2C(=O)Nc2ccc3c(c2)OC(F)(F)O3)ccn1 [Example 95, N-(3-amino-3-oxopropyl)-4-{[(2{[(2,2-difluoro-1,3-benzodioxol-5-yl)amino]carbonyl}phenyl)amino]methyl}pyridine-2-carboxamide]
IC50 (group: less than 500 nM): < 500 nM

O=C(NCCCn1ccnc1)c1cc(CNc2ccccc2C(=O)Nc2ccc3c(c2)OC(F)(F)O3)ccn1 [Example 96, 4-{[(2-{[(2,2-difluoro-1,3-benzodioxol-5-yl)amino]carbonyl}phenyl)amino]methyl}-N-[3-(1H-imidazol-1-yl)propyl]pyridine-2-carboxamide]
IC50 (group: less than 500 nM): < 500 nM

O=C(NCCCCN1CCCC1)c1cc(CNc2ccccc2C(=O)Nc2ccc3c(c2)OC(F)(F)O3)ccn1 [Example 97, 4-{[(2-{[(2,2-difluoro-1,3-benzodioxol-5-yl)amino]carbonyl}phenyl)amino]methyl}-N-(4-pyrrolidin-1-ylbutyl)pyridine-2-carboxamide]
IC50 (group: less than 500 nM): < 500 nM

O=C(NCCCN1CCCCC1)c1cc(CNc2ccccc2C(=O)Nc2ccc3c(c2)OC(F)(F)O3)ccn1 [Example 98, 4-{[(2-{[(2,2-difluoro-1,3-benzodioxol-5-yl)amino]carbonyl}phenyl)amino]methyl}-N-(3-piperidin-1-ylpropyl)pyridine-2-carboxamide]
IC50 [1]: 500 to 1000 nM

O=C(O)CCNC(=O)c1cc(CNc2ccccc2C(=O)Nc2ccc3c(c2)OC(F)(F)O3)ccn1 [Example 99, N-[(4-{[(2-{[(2,2-difluoro-1,3-benzodioxol-5-yl)amino]carbonyl}phenyl)amino]methyl}pyridin-2-yl)carbonyl]beta-alanine]
IC50 (group: between 1 and 3 μM): 1000 to 3000 nM

CN(C)CCCCCNC(=O)c1cc(CNc2ccccc2C(=O)Nc2ccc3c(c2)OC(F)(F)O3)ccn1 [Example 100, 4-{[(2-{[(2,2-difluoro-1,3-benzodioxol-5-yl)amino]carbonyl}phenyl)amino]methyl)-N-[5-(dimethylamino)pentyl]pyridine2-carboxamide]
IC50 (group: less than 500 nM): < 500 nM

O=C(NCCc1c[nH]c2ccccc12)c1cc(CNc2ccccc2C(=O)Nc2ccc3c(c2)OC(F)(F)O3)ccn1 [Example 102, 4-{[(2-{[(2,2-difluoro-1,3-benzodioxol-5-yl)amino]carbonyl}phenyl)amino]methyl}-N-[2-(1H-indol-3-yl)ethyl]pyridine-2-carboxamide]
IC50 (group: between 1 and 3 μM): 1000 to 3000 nM

O=C(NCCOCCO)c1cc(CNc2ccccc2C(=O)Nc2ccc3c(c2)OC(F)(F)O3)ccn1 [Example 103, 4-{[(2-{[(2,2-difluoro-1,3-benzodioxol-5-yl)amino]carbonyl}phenyl)amino]methyl}-N-[2-(2-hydroxyethoxy)ethyl]pyridine-2carboxamide]
IC50 (group: less than 500 nM): < 500 nM

O=C(NCc1ccncc1)c1cc(CNc2ccccc2C(=O)Nc2ccc3c(c2)OC(F)(F)O3)ccn1 [Example 104, 4-{[(2-{[(2,2-difluoro-1,3-benzodioxol-5-yl)amino]carbonyl}phenyl)amino]methyl}-N-(pyridin-4-ylmethyl)pyridine-2-carboxamide]
IC50 (group: less than 500 nM): < 500 nM

CCCCN(CCCC)CCCNC(=O)c1cc(CNc2ccccc2C(=O)Nc2ccc3c(c2)OC(F)(F)O3)ccn1 [Example 105, N-[3-(dibutylamino)propyl]-4-{[(2-{[(2,2-difluoro-1,3-benzodioxol-5-yl)amino]carbonyl}phenyl)amino]methyl}pyridine-2-carboxamide]
IC50 [1]: 500 to 1000 nM

CCN(CCNC(=O)c1cc(CNc2ccccc2C(=O)Nc2ccc3c(c2)OC(F)(F)O3)ccn1)c1cccc(C)c1 [Example 106, 4-{[(2-{[(2,2-difluoro-1,3-benzodioxol-5-yl)amino]carbonyl}phenyl)amino]methyl}-N-{2-[ethyl(3-methylphenyl)amino]ethyl}pyridine-2-carboxamide]
IC50 (group: between 1 and 3 μM): 1000 to 3000 nM

CN(CCCNC(=O)c1cc(CNc2ccccc2C(=O)Nc2ccc3c(c2)OC(F)(F)O3)ccn1)c1ccccc1 [Example 107, 4-{[(2-{[(2,2-difluoro-1,3-benzodioxol-5-yl)amino]carbonyl}phenyl)amino]methyl}-N-{3-[methyl(phenyl)amino]propyl}pyridine-2-carboxamide]
IC50 (group: between 1 and 3 μM): 1000 to 3000 nM

CCN(CC)CCCC(C)NC(=O)c1cc(CNc2ccccc2C(=O)Nc2ccc3c(c2)OC(F)(F)O3)ccn1 (centres unmarked) [Example 108, N-[4-(diethylamino)-1-methylbutyl]-4-{[(2-{[(2,2-difluoro-1,3-benzodioxol-5-yl)amino]carbonyl}phenyl)amino]methyl}pyridine-2-carboxamide]
IC50 [1]: 500 to 1000 nM

CC(C)C[C@H](CO)NC(=O)c1cc(CNc2ccccc2C(=O)Nc2ccc3c(c2)OC(F)(F)O3)ccn1 [Example 109, 4-{[(2-{[(2,2-difluoro-1,3-benzodioxol-5-yl)amino]carbonyl}phenyl)amino]methyl}-N-[1-(hydroxymethyl)-3-methylbutyl]pyridine-2-carboxamide]
IC50 (group: between 1 and 3 μM): 1000 to 3000 nM

CCOCCCNC(=O)c1cc(CNc2ccccc2C(=O)Nc2ccc3c(c2)OC(F)(F)O3)ccn1 [Example 110, 4-{[(2-{[(2,2-difluoro-1,3-benzodioxol-5-yl)amino]carbonyl}phenyl)amino]methyl}-N-(3-ethoxypropyl)pyridine-2-carboxamide]
IC50 (group: less than 500 nM): < 500 nM

CC(C)OCCCNC(=O)c1cc(CNc2ccccc2C(=O)Nc2ccc3c(c2)OC(F)(F)O3)ccn1 [Example 111, 4-{[(2-{[(2,2-difluoro-1,3-benzodioxol-5-yl)amino]carbonyl}phenyl)amino]methyl}-N-(3-isopropoxypropyl)pyridine-2-carboxamide]
IC50 (group: less than 500 nM): < 500 nM

CCCCOCCCNC(=O)c1cc(CNc2ccccc2C(=O)Nc2ccc3c(c2)OC(F)(F)O3)ccn1 [Example 112, N-(3-butoxypropyl)-4-{[(2-{[(2,2difluoro-1,3-benzodioxol-5-yl)amino]carbonyl}phenyl)amino]methyl}pyridine-2-carboxamide]
IC50 [1]: 500 to 1000 nM

O=C(NCCCN1CCCCCC1)c1cc(CNc2ccccc2C(=O)Nc2ccc3c(c2)OC(F)(F)O3)ccn1 [Example 113, N-(3-azepan-1-ylpropyl)-4-{[(2-{[(2,2-difluoro-1,3-benzodioxol-5-yl)amino]carbonyl}phenyl)amino]methyl}pyridine-2-carboxamide]
IC50 (group: less than 500 nM): < 500 nM

CCCOCCNC(=O)c1cc(CNc2ccccc2C(=O)Nc2ccc3c(c2)OC(F)(F)O3)ccn1 [Example 114, 4-{[(2-{[(2,2-difluoro-1,3-benzodioxol-5-yl)amino]carbonyl}phenyl)amino]methyl}-N-(2-propoxyethyl)pyridine-2-carboxamide]
IC50 (group: less than 500 nM): < 500 nM

CC(CN(C)C)NC(=O)c1cc(CNc2ccccc2C(=O)Nc2ccc3c(c2)OC(F)(F)O3)ccn1 (centres unmarked) [Example 116, 4-{[(2-{[(2,2-difluoro-1,3-benzodioxol-5-yl)amino]carbonyl}phenyl)amino]methyl}-N-[2-(dimethylamino)-1-methylethyl]pyridine-2-carboxamide]
IC50 (group: between 1 and 3 μM): 1000 to 3000 nM

CN1CCCC1CCNC(=O)c1cc(CNc2ccccc2C(=O)Nc2ccc3c(c2)OC(F)(F)O3)ccn1 (centres unmarked) [Example 117, 4-{[(2-{[(2,2-difluoro-1,3-benzodioxol-5-yl)amino]carbonyl}phenyl)amino]methyl}-N-[2-(1-methylpyrrolidin-2-yl)ethyl]pyridine-2-carboxamide]
IC50 (group: less than 500 nM): < 500 nM

O=C(NC1CCN(Cc2ccccc2)C1)c1cc(CNc2ccccc2C(=O)Nc2ccc3c(c2)OC(F)(F)O3)ccn1 (centres unmarked) [Example 118, N-(1-benzylpyrrolidin-3-yl)-4-{[(2-{[(2,2-difluoro-1,3-benzodioxol-5-yl)amino]carbonyl}phenyl)amino]methyl}pyridine-2-carboxamide]
IC50 (group: between 1 and 3 μM): 1000 to 3000 nM

CC1CCCCN1CCCNC(=O)c1cc(CNc2ccccc2C(=O)Nc2ccc3c(c2)OC(F)(F)O3)ccn1 (centres unmarked) [Example 119, 4-{[(2-{[(2,2-difluoro-1,3-benzodioxol-5-yl)amino]carbonyl}phenyl)amino]methyl}-N-[3-(2-methylpiperidin-1-yl)propyl]pyridine-2-carboxamide]
IC50 (group: less than 500 nM): < 500 nM

O=C(NCCc1ccccn1)c1cc(CNc2ccccc2C(=O)Nc2ccc3c(c2)OC(F)(F)O3)ccn1 [Example 120, 4-{[(2-{[(2,2-difluoro-1,3-benzodioxol-5-yl)amino]carbonyl}phenyl)amino]methyl}-N-(2-pyridin-2-ylethyl)pyridine-2-carboxamide]
IC50 (group: less than 500 nM): < 500 nM

CN(C)CC(C)(C)CNC(=O)c1cc(CNc2ccccc2C(=O)Nc2ccc3c(c2)OC(F)(F)O3)ccn1 [Example 121, 4-{[(2-{[(2,2-difluoro-1,3-benzodioxol-5-yl)amino]carbonyl}phenyl)amino]methyl}-N-[3-(dimethylamino)-2,2-dimethylpropyl]pyridine-2-carboxamide]
IC50 (group: between 1 and 3 μM): 1000 to 3000 nM
